pIC50: −log10 of the molar value. Like-named read-outs stand apart in the source and are kept apart here. Values belong to the molecule of their own block, whether it stands above or below them.
How the values were obtained:
HSV-1 = assay: Time of addition (TOA) assay in HSV-1-infected U2OS cells; format: cell-based; details: non-toxic concentration, added every 2 hours up to 10 h.p.i., supernatants at 30 h.p.i. titrated by PRA
Description: To assess the main and temporally last viral step targeted by the most promising compound, GSA-0932, a time of addition (TOA) assay was performed (see, FIG. 2) (see, Artusi S., et al., Antiviral Res. 2015; 118:123-31; Callegaro S., et al., Sci. Rep. 2017; 7: 2341; Daelemans D., et al., Nat. Protoc. 2011; 6(6):925-33). This experiment permits determination of how long the addition of a compound can be postponed before it loses its antiviral activity. Since the HSV-1 replication cycle proceeds in a well-established chronological order, it is possible to investigate the last viral process targeted by a compound comparing its action to that of a reference drug in the time frame of replication events. The well characterized anti-HSV drug Acyclovir (ACV) was considered as reference (see, Artusi S., et al., Antiviral Res. 2015; 118:123-31; Callegaro S., et al., Sci. Rep. 2017; 7: 2341). HSV-1-infected U2OS cells were treated with a non-toxic concentration of GSA-0932 at different times post-infection (corresponding to different viral cycle steps): every 2 hours up to 10 h.p.i. Supernatants were collected at 30 h.p.i. and then titrated by PRA.

[1] = test system: HSV-1 un3 G-quadruplex folding sequence; assay: Circular dichroism (CD) melting of G-quadruplex, un3; format: binding
Description: (§1) Circular dichroism (CD) was conducted to evaluate the binding and stabilizing activity of GSA-0932 to HSV-1 G-quadruplex structures (G4s). Three sequences were considered: two sequences forming a four-stacked-G-quartet structure (un2 and gp054a) and one forming a three-G-quartet G4 (un3) (see, Artusi S., et al., Antiviral Res. 2015; 118:123-31). HSV-1 G4s were analyzed at a final concentration of 4 μM in the presence of the physiological K^+ concentration (100 mM) or in the presence of lower K^+ concentration (2.5 mM) in order to better appreciate the effect of the compound in the case of extremely stable G4 structures (e.g. un2 sequence). Oligonucleotides were also analyzed in the absence or presence of 4-folds excess of GSA-0932.

[2] = test system: un3 G-quadruplex-folded oligonucleotide; assay: Competition ESI-MS binding, un3; design: species or system HSV-1; details: competing G4s un3/hTel, oligonucleotides 4 μM, DNA:compound 1:1.5, overnight 4° C.
Description: (§2) Competition electrospray ionization mass spectrometry (ESI-MS) experiments were performed in order to check the binding selectivity of GSA-0932 toward different G-quadruplex forming sequences (see, Callegaro S., et al., Sci. Rep. 2017; 7: 2341; Yuan G., et al., Mass Spectrom. Rev. 2011, 30, 1121-114210.1002/mas.20315). The viral un3, un2 and gp054a G4s were analyzed against the selected competitor hTel, the G-quadruplex-forming sequence of the human telomeric repeat, the most abundant cellular G-quadruplex. The oligonucleotides were diluted to final concentration of 4 μM and incubated with the compound at ratio DNA:compound 1:1.5 overnight at 4° C. Samples were analyzed by a Xevo G2-XS QT of mass spectrometer (Waters, Manchester, UK). Binding affinities were calculated for each experiment using the peak intensity for each species measured by MassLynx V4.1.

[3] = Cytotoxicity by MTT assay; format: cell-based, Human; details: human, U2OS cells (osteosarcoma cell line), read-out: CC50 (concentration able to kill 50% of the cells)
Description: (§3) Quindoline-derived compounds were first screened for their anti-herpetic activity. […] Supernatants were collected at 24 hours post infection (h.p.i.) and the reduction of viral particles production was determined by plaque reduction assay (PRA) (see, Artusi S., et al., Antiviral Res. 2015; 118:123-31; Callegaro S., et al., Sci. Rep. 2017; 7: 2341). Antiviral activities were determined as the concentration of compounds able to perform 50% inhibition of HSV-1 production (IC50). Cytotoxicity effects were evaluated in parallel by MTT assay and reported as the concentration of compounds able to kill 50% of the cells (CC50). The selectivity index (SI) was calculated as the ratio of CC50 to IC50.

[4] = test system: hTel, the G-quadruplex-forming sequence of the human telomeric repeat; assay: Competition ESI-MS binding, hTel; details: oligonucleotides 4 μM, DNA:compound 1:1.5, overnight 4° C.
Description: as §2

[5] = test system: gp054a G-quadruplex-folded oligonucleotide; assay: Competition ESI-MS binding, gp054a; design: species or system HSV-1; details: competing G4s gp054a/hTel, oligonucleotides 4 μM, DNA:compound 1:1.5, overnight 4° C.
Description: as §2

[6] = test system: HSV-1 gp054a G-quadruplex folding sequence; assay: Circular dichroism (CD) melting of G-quadruplex, gp054a; format: binding; details: for Tm, first value: first of two printed Tm; for Tm, second value: second of two printed Tm
Description: as §1

[7] = test system: HSV-1 un2 G-quadruplex folding sequence; assay: Circular dichroism (CD) melting of G-quadruplex, un2; format: binding; details: un2 4 μM + 16 μM GSA-0932, K+ 2.5 mM
Description: as §1

wild-type HSV-1 strain F = assay: Anti-HSV-1 plaque reduction assay (PRA) on supernatants of infected U2OS cells; format: cell-based; details: for pIC50: MOI 1, supernatants at 24 h.p.i., plaque reduction assay, read-out: IC50 (concentration able to perform 50% inhibition of HSV-1 production)
Description: Quindoline-derived compounds were first screened for their anti-herpetic activity. Increasing concentrations of compounds (from 25 to 400 nM) were added to U2OS cells infected with wild-type HSV-1 strain F at a MOI of 1. Supernatants were collected at 24 hours post infection (h.p.i.) and the reduction of viral particles production was determined by plaque reduction assay (PRA) (see, Artusi S., et al., Antiviral Res. 2015; 118:123-31; Callegaro S., et al., Sci. Rep. 2017; 7: 2341). Antiviral activities were determined as the concentration of compounds able to perform 50% inhibition of HSV-1 production (IC50). Cytotoxicity effects were evaluated in parallel by MTT assay and reported as the concentration of compounds able to kill 50% of the cells (CC50). The selectivity index (SI) was calculated as the ratio of CC50 to IC50.

[8] = test system: control DNA template unable to fold into G-quadruplex; assay: Taq polymerase stop assay, non-G4 control template; format: biochemical; details: non-G4 ctrl template
Description: (§4) FIG. 3: Taq polymerase stop assay. A) Image of a typical Taq polymerase stop assay. The un2, un3, gp054a template were amplified by Taq polymerase in the absence (lanes 5-9-13) and in the presence of K^+, combined with increasing amounts (2-8 μM) of GSA-0932 (lanes 7-8, 11-12, 15-16) or same amount of DMSO as that in the ligand (lanes 6-10-14). Un3 was analyzed at 50 mM of K^+, while the other sequences were investigated at 0.5 mM of K^+. A template (non-G4 ctrl) unable to fold into G4 was also used as control (lanes 1-4). P stands for unreacted labeled primer, FL stands for full length product. G4-specific Taq polymerase stop sites are highlighted by vertical bars. Quantification of stop bands corresponding to G4 and of the full length amplification product (FL) is shown.
(§5) Un3 was analyzed at 50 mM of K^+, while the FIG. 3 other sequences were investigated at 0.5 mM of K^+ due to their higher stability.

[9] = test system: un2, un3 and gp054a G-quadruplex forming templates; assay: Taq polymerase stop assay, G-quadruplex templates; format: biochemical, HSV-1; details: 2-8 μM compound; un3 at 50 mM K+, un2 and gp054a at 0.5 mM K+
Description: as §4
To confirm the increased stability of the viral G-quadruplexes in the presence of GSA-0932, a Taq polymerase stop assay was next set up (FIG. 3). Extended un2, un3 and gp054a forming sequences were used, containing additional flanking bases at the 3′-end: a primer annealing sequence and a 5-T linker region to separate the annealing sequence from the first G of the G-tract.
as §5

[10] = test system: un2 G-quadruplex-folded oligonucleotide; assay: Competition ESI-MS binding, un2; design: species or system HSV-1; details: competing G4s un2/hTel, oligonucleotides 4 μM, DNA:compound 1:1.5, overnight 4° C.
Description: as §2

[11] = test system: U2OS (Human osteosarcoma cell line); assay: Cytotoxicity by MTT assay; format: cell-based; details: U2OS cells, read-out: CC50 (concentration able to kill 50% of the cells)
Description: as §3

[12] = un3 4 μM + 16 μM GSA-0932, K+ 2.5 mM
[13] = un3 4 μM + 16 μM GSA-0932, K+ 100 mM
[14] = gp054a 4 μM + 16 μM GSA-0932, K+ 2.5 mM
[15] = gp054a 4 μM + 16 μM GSA-0932, K+ 100 mM
[16] = Human alphaherpesvirus 1, HSV-1 strain F

pIC50 (wild-type HSV-1 strain F; [16]): 6.45
Structure (SMILES): c1ccc2c3c4c(nc2c1)c1ccccc1n4CCCN3CCCN1CCOCC1 [GSA-0825]
CC50 [3]: 32700 nM
SI (selectivity index, ratio of CC50 to IC50) (wild-type HSV-1 strain F): 91.64

pIC50 (wild-type HSV-1 strain F; [16]): 6.69
Structure (SMILES): c1ccc2c3c4c(nc2c1)c1ccccc1n4CCCN3CCCN1CCCCC1 [GSA-1202]
CC50 [3]: 4320 nM
SI (selectivity index, ratio of CC50 to IC50) (wild-type HSV-1 strain F): 21.31

pIC50 (wild-type HSV-1 strain F; [16]): 6.65
Structure (SMILES): CN(C)CCCN1CCCn2c3ccccc3c3nc4ccccc4c1c32 [GSA-1504]
CC50 [3]: 4600 nM
SI (selectivity index, ratio of CC50 to IC50) (wild-type HSV-1 strain F): 20.42

pIC50 (wild-type HSV-1 strain F; [16]): 6.59
Structure (SMILES): OC1CCC(CCN2CCCn3c4ccccc4c4nc5ccccc5c2c43)CC1 (centres unmarked) [GSA-1512]
CC50 [3]: 18100 nM
SI (selectivity index, ratio of CC50 to IC50) (wild-type HSV-1 strain F): 70.78

pIC50 (wild-type HSV-1 strain F; [16]): 6.73
Structure (SMILES): CN(C)CCN1CCCn2c3ccccc3c3nc4ccccc4c1c32 [GSA-1502]
CC50 [3]: 12900 nM
SI (selectivity index, ratio of CC50 to IC50) (wild-type HSV-1 strain F): 68.70

More lines, now with the values behind:

Structure (SMILES): OC1CCN(CCN2CCCn3c4ccccc4c4nc5ccccc5c2c43)CC1 [GSA-0932]
time of addition up to which infection was kept controlled (HSV-1): up to 6 h.p.i.
Tm [1, 12]: 56.4 ± 1.2 °C
ΔTm [1, 12]: 18.8 ± 0.8 °C
Tm [1, 13]: 66.4 °C
ΔTm [1, 13]: 1.4 °C
Relative binding affinity, un3 [2]: 50.3 ± 1.2
CC50 [3]: 14900 nM
Relative binding affinity, Cell G4 (hTel) ([4]; competing G4s un2/hTel): 11.1 ± 0.4
Relative binding affinity, Cell G4 (hTel) ([4]; competing G4s un3/hTel): 13.8 ± 0.2
Relative binding affinity, gp054a [5]: 57.3 ± 0.4
ΔTm [6, 14]: 15.6 °C
Tm, first value [6, 14]: 74.5 °C
Tm, second value [6, 14]: > 90 °C
Tm, first value [6, 15]: 74.7 °C
ΔTm, first value ([6]; gp054a 4 μM + 16 μM GSA-0932, K+ 100 mM, first of two printed ΔTm): 17.4 °C
Tm, second value [6, 15]: > 90 °C
ΔTm, second value ([6]; gp054a 4 μM + 16 μM GSA-0932, K+ 100 mM, second of two printed ΔTm): > 7.5 °C
Tm [7]: >90 °C
ΔTm [7]: >7.5 °C
SI (selectivity index, ratio of CC50 to IC50) (wild-type HSV-1 strain F): 112.9
pIC50 (wild-type HSV-1 strain F; [16]): 6.88
effect on control DNA template [8]: no effect
intensity of the G4 stop bands [9]: increased in a concentration dependent manner
Relative binding affinity, un2 [10]: 38.9 ± 1.7

Structure (SMILES): Cl.c1ccc2c3c4c(nc2c1)c1ccccc1n4CCCN3CCCN1CCCCCC1 [GSA-0920]
CC50 [3]: 3620 nM
SI (selectivity index, ratio of CC50 to IC50) (wild-type HSV-1 strain F): <9.05
pIC50 (wild-type HSV-1 strain F; [16]): < 6.40

Structure (SMILES): CN1CCN(CCCN2CCCn3c4ccccc4c4nc5ccccc5c2c43)CC1 [GSA-0903]
CC50 [3]: 6230 nM
SI (selectivity index, ratio of CC50 to IC50) (wild-type HSV-1 strain F): <31.15
pIC50 (wild-type HSV-1 strain F; [16]): < 6.70

Structure (SMILES): Cc1c2ccncc2c(C)c2c1[nH]c1ccc(OCCN(C)C)cc12 [GQC-05, reference compound]
CC50 [11]: 1650 nM
pIC50 (wild-type HSV-1 strain F; HSV-1 strain F): 6.51
